Data from US5583142A, “Analgesic and nootropic drugs” (priority 1992, dated 1996).
Values joined by “and” are separate entries in the source; they are usually repeats but may differ in a detail not shown here. Identical values can stand only once. Like-named read-outs stand apart in the source and are kept apart here.

How the values were obtained:
rat paw-pressure test = format: in vivo
Description: (§1) The analgesic action was detected in mouse, rat, guinea pig and dog. The mouse was subjected to hot plate and writhing tests; the rat to tail-flick and paw-pressure tests; the guinea pig to paw-pressure test only; the dog to the test described by Vainio et al. [J. Vet. Pharmacol. Ther., 12, 225-231 (1989)] using an electric stimulation. Consequently, the claimed compounds were tested with pain being induced by stimuli of different nature: thermal (hot plate and tail flick), chemical (writhing by acetic acid), mechanical (paw pressure) and electrical (cutaneous stimulation).
(§2) As already mentioned, the claimed products were assayed also in rat by the paw-pressure and tail-flick tests.
(§3) Both tests were carried out with the max. doses not impairing the rats normal behaviour. […] The painful stimulus utilized in the paw-pressure test involved the animal consciousness to a much greater extent than the stimulus used in the tail-flick test, in fact, the type and anatomic localization of the latter mainly involved a spinal response.
(§4) Both tests on rats were carried out with the max. doses not altering the behaviour of the treated animals.

rat tail-flick test = format: in vivo
Description: as §1, §2, §3, §4
The test was performed using th

[1] = mouse rota-rod test (16 r.p.m.)
Text: All products tested to detect their antinociceptive activity had been previously tested by the rota-rod test to determine their maximum utilizable dose in analgesic tests. In fact, by this test it is possible to determine the highest dose of drug not impairing the normal performance of animals in a test that simultaneously evaluates motor coordination, equilibrium, resistance to fatigue, and muscle strength. This test is meant to evaluate the capability of mice to stay balanced on a rotating rod [cf. Vaught et al., Neuropharmacology, 24 (3) 211-216 (1985)].
The calculated doses were those used in the two analgesic tests on mice.

[2] = format: in vivo, mouse
Description: as §1
(§5) Potency, efficacy and toxicity of SM21, PG9 and SM32 in comparison with
(§6) four principal reference analgesic drugs tested in mouse. As analgesic

[3] = mouse acetic acid writhing test; format: in vivo; conditions: for efficacy in writhing test, in words / number of writhes / Efficacy as analgesic (Morphine = 100) / percent inhibition: mouse; for Efficacy as analgesic (Morphine = 100) / percent inhibition: writhing; for ED50: mouse writhing
Description: as §1
The claimed molecules, chosen as examples, were also assayed in mice by the writhing test (Table 4). The test is meant to evaluate the products capability to prevent mice writhes ensuing abdominal pains caused by i.p. injection of a 0.6% aqueous solution of acetic acid.
Acetic acid solution = 0.6% v/v.

in vivo = conditions: mouse
Text: as §5, §6

[4] = paw-pressure test in rats with a lesion in the nucleus basalis magnocellularis (NBM); format: in vivo, rat; conditions: 4 mg/kg i.p.
Text: 3. […] In fact, as known, the magnocellular basal nucleus destruction causes the degeneration of most central cholinergic system.

[5] = 15 mg/kg i.p., 15 min after treatment
[6] = 15 mg/kg i.p., 30 min after treatment
[7] = 15 mg/kg i.p., 45 min after treatment
[8] = 40 mg/kg s.c., 15 min after treatment
[9] = 40 mg/kg s.c., 30 min after treatment
[10] = 40 mg/kg s.c., 45 min after treatment
[11] = 20 mg/kg i.p., 15 min after treatment
[12] = 20 mg/kg i.p., 30 min after treatment
[13] = 20 mg/kg i.p., 45 min after treatment
[14] = 100 mg/kg i.p., 15 min after treatment
[15] = 100 mg/kg i.p., 30 min after treatment
[16] = 100 mg/kg i.p., 45 min after treatment

Q: What does the source list for `CN(C)CCOC(c1ccccc1)c1ccccc1` [Diphenhydramine, reference compound]?
A: activity in paw-pressure test, in words (rat paw-pressure test): inactive; paw-pressure (rat paw-pressure test; [5]): 72.6 ± 6.8 g; paw-pressure (rat paw-pressure test; [6]): 70.0 ± 5.4 g; paw-pressure (rat paw-pressure test; [7]): 68.0 ± 6.6 g; activity in tail-flick test, in words (rat tail-flick test): inactive; tail-flick (rat tail-flick test; [5]): 2.9 ± 0.2 s; tail-flick (rat tail-flick test; [6]): 2.5 ± 0.2 s; tail-flick (rat tail-flick test; [7]): 2.5 ± 0.1 s; rota-rod performance (number of falls in 30 s) ([1]; 25 mg/kg s.c., 15 min after treatment): 2.0 ± 0.5 falls in 30 s; rota-rod performance (number of falls in 30 s) ([1]; 25 mg/kg s.c., 30 min after treatment): 1.0 ± 0.3 falls in 30 s; rota-rod performance (number of falls in 30 s) ([1]; 25 mg/kg s.c., 45 min after treatment): 1.4 ± 0.4 falls in 30 s; rota-rod performance (number of falls in 30 s) ([1]; 30 mg/kg s.c., 15 min after treatment): 2.1 ± 0.4 falls in 30 s; rota-rod performance (number of falls in 30 s) ([1]; 30 mg/kg s.c., 30 min after treatment): 1.5 ± 0.3 falls in 30 s; rota-rod performance (number of falls in 30 s) ([1]; 30 mg/kg s.c., 45 min after treatment): 1.5 ± 0.4 falls in 30 s; rota-rod performance (number of falls in 30 s) [1, 8]: 4.3 ± 0.4 falls in 30 s; rota-rod performance (number of falls in 30 s) [1, 9]: 3.1 ± 0.4 falls in 30 s; rota-rod performance (number of falls in 30 s) [1, 10]: 2.3 ± 0.4 falls in 30 s; ED50 compared with claimed compounds ([2]; mouse hot plate): equivalent to those of the claimed compounds; analgesic efficacy / degree of analgesia compared with claimed compounds ([2]; mouse hot plate): much lower degree of analgesia; Efficacy as analgesic (Morphine = 100), M.E. (Maximum Analgesic Effect) ([2]; mouse, in vivo): 43; hot-plate latency ([2]; mouse, 20 mg/kg i.p., 15 min after treatment): 21.6 ± 2.5 s; hot-plate latency ([2]; mouse, 20 mg/kg i.p., 30 min after treatment): 17.7 ± 1.6 s; hot-plate latency ([2]; mouse, 20 mg/kg i.p., 45 min after treatment): 17.1 ± 1.8 s; hot-plate latency ([2]; mouse, 20 mg/kg s.c., 15 min after treatment): 23.6 ± 2.6 s; hot-plate latency ([2]; mouse, 20 mg/kg s.c., 30 min after treatment): 18.0 ± 1.4 s; hot-plate latency ([2]; mouse, 20 mg/kg s.c., 45 min after treatment): 18.7 ± 2.1 s; efficacy in writhing test, in words [3]: far less efficacious; number of writhes ([3]; 20 mg/kg s.c.): 24.6 ± 2.4; Efficacy as analgesic (Morphine = 100) ([3]; 20 mg/kg s.c.): 38; percent inhibition ([3]; 20 mg/kg s.c.): 28.1%; ED50 ([3]; sc): 7.8 mg/kg and 30.5 µmol/kg

Q: With `CCC(Sc1ccccc1)C(=O)O[C@H]1C[C@H]2CC[C@@H](C1)N2C` (stereo partly drawn) [SM-32, 3α-Tropanyl 2-(phenylthio)-butyrate] as the compound, how does the “activity in paw-pressure test, in words” value (rat paw-pressure test) read?
A: almost equivalent analgesia

Q: What about the paw-pressure (rat paw-pressure test; [11]) of the same compound?
A: 86.2 ± 4.0 g

Q: What about the paw-pressure (rat paw-pressure test; [12]) of the same compound?
A: 92.0 ± 6.1 g

Q: What about the paw-pressure (rat paw-pressure test; [13]) of the same compound?
A: 69.0 ± 4.8 g

Q: And the “activity in tail-flick test, in words” value (rat tail-flick test)?
A: active

Q: And the tail-flick (rat tail-flick test; [11])?
A: 3.1 ± 0.5 s

Q: And the tail-flick (rat tail-flick test; [12])?
A: 4.7 ± 0.6 s

Q: And the tail-flick (rat tail-flick test; [13])?
A: 4.3 ± 0.5 s

Q: And the LD50 (in vivo; sc)?
A: 584 µmol/kg

Q: What about the “rota-rod performance (number of falls in 30 s)” value (“rota-rod performance” below) [1, 8] of the same compound?
A: 1.2 ± 0.6 falls in 30 s

Q: What about the “rota-rod performance” value [1, 9] of the same compound?
A: 1.4 ± 0.3 falls in 30 s

Q: And the “rota-rod performance” value [1, 10]?
A: 1.2 ± 0.4 falls in 30 s

Q: And the “rota-rod performance” value ([1]; 45 mg/kg s.c., 15 min after treatment)?
A: 2.0 ± 0.3 falls in 30 s

Q: What about the “rota-rod performance” value ([1]; 45 mg/kg s.c., 30 min after treatment) of the same compound?
A: 2.3 ± 0.3 falls in 30 s

Q: What about the “rota-rod performance” value ([1]; 45 mg/kg s.c., 45 min after treatment) of the same compound?
A: 2.0 ± 0.5 falls in 30 s

Q: And the “rota-rod performance” value ([1]; 50 mg/kg s.c., 15 min after treatment)?
A: 1.8 ± 0.4 falls in 30 s

Q: What about the “rota-rod performance” value ([1]; 50 mg/kg s.c., 30 min after treatment) of the same compound?
A: 2.6 ± 0.6 falls in 30 s

Q: What about the “rota-rod performance” value ([1]; 50 mg/kg s.c., 45 min after treatment) of the same compound?
A: 2.6 ± 0.5 falls in 30 s

Q: And the “ANALGESIC ACTIVITY (degree of analgesia, latency on hot plate)” value ([2]; max. dose not affecting mice behaviour)?
A: ++++ (Latency above 35" ++++-)

Q: And the “analgesic effect (AUC up to 45 min) compared with reference compounds” value ([2]; mouse hot plate, FIG. 5, s.c.)?
A: more active than the reference compounds

Q: And the “Efficacy as analgesic (Morphine = 100), AUC (Area Under Curve)” value ([2]; mouse, in vivo)?
A: 120

Q: And the “Efficacy as analgesic (Morphine = 100), M.E. (Maximum Analgesic Effect)” value ([2]; mouse, in vivo)?
A: 107

Q: What about the “analgesic effect (AUC up to 45 min) compared with morphine” value ([2]; mouse, in vivo, ip) of the same compound?
A: only slightly less active than morphine

Q: And the hot-plate latency ([2]; mouse, 35 mg/kg i.p., 15 min after treatment)?
A: 35.5 ± 3.0 s

Q: What about the hot-plate latency ([2]; mouse, 35 mg/kg i.p., 30 min after treatment) of the same compound?
A: 33.5 ± 2.6 s

Q: And the hot-plate latency ([2]; mouse, 35 mg/kg i.p., 45 min after treatment)?
A: 24.4 ± 1.9 s

Q: And the hot-plate latency ([2]; mouse, 35 mg/kg s.c., 15 min after treatment)?
A: 38.7 ± 3.5 s

Q: What about the hot-plate latency ([2]; mouse, 35 mg/kg s.c., 30 min after treatment) of the same compound?
A: 36.4 ± 3.2 s

Q: And the hot-plate latency ([2]; mouse, 35 mg/kg s.c., 45 min after treatment)?
A: 25.7 ± 2.9 s

Q: What about the “efficacy in writhing test, in words” value [3] of the same compound?
A: less efficacious than ketorolac, are more efficacious than morphine

Q: What about the number of writhes ([3]; 35 mg/kg s.c.) of the same compound?
A: 5.5 ± 2.1

Q: What about the “Efficacy as analgesic (Morphine = 100)” value ([3]; 35 mg/kg s.c.) of the same compound?
A: 111

Q: What about the percent inhibition ([3]; 35 mg/kg s.c.) of the same compound?
A: 83.4%

Q: And the ED50 ([3]; sc)?
A: 15.9 mg/kg and 35.7 µmol/kg

Q: Which results are given for `NCC(CC(=O)O)c1ccc(Cl)cc1` (stereo not shown) [Baclofen, reference compound]?
A: paw-pressure ([4]; lesioned (NBM) rats, 15 min after treatment): 117.4 ± 6.4 g; paw-pressure ([4]; lesioned (NBM) rats, 30 min after treatment): 137.9 ± 4.8 g; paw-pressure ([4]; lesioned (NBM) rats, 45 min after treatment): 131.8 ± 5.7 g; paw-pressure ([4]; sham rats, 15 min after treatment): 108.7 ± 6.6 g; paw-pressure ([4]; sham rats, 30 min after treatment): 132.8 ± 5.9 g; paw-pressure ([4]; sham rats, 45 min after treatment): 124.7 ± 5.8 g

Q: What does the source list for `O=C(c1ccccc1)c1ccc2n1CCC2C(=O)O` (stereo not shown) [Ketorolac Trometamine]?
A: activity in paw-pressure test, in words (rat paw-pressure test): almost equivalent analgesia; paw-pressure (rat paw-pressure test; [14]): 59.3 ± 5.6 g; paw-pressure (rat paw-pressure test; [15]): 97.4 ± 6.2 g; paw-pressure (rat paw-pressure test; [16]): 74.6 ± 5.8 g; activity in tail-flick test, in words (rat tail-flick test): inactive; tail-flick (rat tail-flick test; [14]): 3.3 ± 0.2 s; tail-flick (rat tail-flick test; [15]): 3.2 ± 0.2 s; tail-flick (rat tail-flick test; [16]): 2.6 ± 0.3 s; LD50 (in vivo; ip): 1260 µmol/kg; Efficacy as analgesic (Morphine = 100), AUC (Area Under Curve) ([2]; mouse, in vivo): 46; Efficacy as analgesic (Morphine = 100), M.E. (Maximum Analgesic Effect) ([2]; mouse, in vivo): 55; hot-plate latency ([2]; mouse, 175 mg/kg i.p., 15 min after treatment): 26.5 ± 3.4 s; hot-plate latency ([2]; mouse, 175 mg/kg i.p., 30 min after treatment): 19.6 ± 1.4 s; hot-plate latency ([2]; mouse, 175 mg/kg i.p., 45 min after treatment): 17.7 ± 1.5 s; hot-plate latency ([2]; mouse, 175 mg/kg s.c., 15 min after treatment): 16.3 ± 1.1 s; hot-plate latency ([2]; mouse, 175 mg/kg s.c., 30 min after treatment): 15.0 ± 1.2 s; hot-plate latency ([2]; mouse, 175 mg/kg s.c., 45 min after treatment): 15.1 ± 1.6 s; activity on hot plate, s.c. administration ([2]; mouse, s.c.): inactive; ED50 ([3]; ip): 8.3 mg/kg and 22 µmol/kg; efficacy in writhing test, in words [3]: higher than by morphine; number of writhes ([3]; 10 mg/kg i.p.): 6.3 ± 1.4; number of writhes ([3]; 175 mg/kg i.p.): 0.3 ± 0.3; Efficacy as analgesic (Morphine = 100) ([3]; 10 mg/kg i.p.): 110; percent inhibition ([3]; 10 mg/kg i.p.): 81.6%; Efficacy as analgesic (Morphine = 100) ([3]; 175 mg/kg i.p.): 133; percent inhibition ([3]; 175 mg/kg i.p.): 99.1%
